The values that follow come from patent US20140256945A1, “PHOSPHONIC ACID COMPOUNDS AS SPHINGOSINE-1-PHOSPHATE RECEPTOR MODULATORS” (Allergan, Inc., priority 2013, published 2014).

A word on the EC50: it is the concentration that produces a half-maximal response.

T1 sequence (P21453 whole entry): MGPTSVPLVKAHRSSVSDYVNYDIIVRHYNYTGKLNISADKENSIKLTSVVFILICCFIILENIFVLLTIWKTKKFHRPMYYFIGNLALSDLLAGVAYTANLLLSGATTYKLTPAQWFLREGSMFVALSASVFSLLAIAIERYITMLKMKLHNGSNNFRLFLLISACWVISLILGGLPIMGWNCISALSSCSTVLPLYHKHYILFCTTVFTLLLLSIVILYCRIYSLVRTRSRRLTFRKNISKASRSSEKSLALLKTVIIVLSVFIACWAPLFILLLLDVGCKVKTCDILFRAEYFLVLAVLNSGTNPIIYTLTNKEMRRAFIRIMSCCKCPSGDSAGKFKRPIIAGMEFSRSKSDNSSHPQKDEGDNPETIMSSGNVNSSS

In one experiment the test system is blood lymphocytes. Put plainly: Lymphopenia Assay in Mice. In kind it is in vivo. The conditions noted are these: female C57BL6 mice, 0.5 mg/Kg subcutaneous, after 5 hours. How it is done: Test drugs are prepared in a solution containing 3% (w/v) 2-hydroxy propyl β-cyclodextrin (HPBCD) and 1% DMSO to a final concentration of 1 mg/ml, and subcutaneously injected to female C57BL6 mice (CHARLES RIVERS) weighing 20-25 g at the dose of 0.5 to 10 mg/Kg. Blood samples are obtained by puncturing the submandibular skin with a Goldenrod animal lancet at 5, 24, 48, and 72 hrs post drug application. Blood is collected into microvettes (SARSTEDT) containing EDTA tripotassium salt. Lymphocytes in blood samples are counted using a HEMAVET Multispecies Hematology System, HEMAVET HV950FS (Drew Scientific Inc.). • (Hale, J. et al Bioorg.& Med. Chem. Lett. 14 (2004) 3351).
A lymphopenia assay in mice; as previously described, was employed to measure the in vivo blood lymphocyte depletion after dosing with the test compound (3-{[2,5-difluoro-4-(6-phenylhexyl)benzyl]amino}propyl)phosphonic acid Compound-10. This S1P1 modulator, (3-{[2,5-difluoro-4-(6-phenylhexyl)benzyl]amino}propyl)phosphonic acid Compound-10 is useful for S1P-related diseases and exemplified by the lymphopenia in vivo response. […] Lymphocytes in blood samples were counted using a HEMAVET Multispecies Hematology System, HEMAVET HV950FS (Drew Scientific Inc.). […]
Take `O=P(O)(O)CCCNCc1cc(F)c(CCCCCCc2ccccc2)cc1F` [Compound 10, (3-{[2,5-difluoro-4-(6-phenylhexyl)benzyl]amino}propyl)phosphonic acid]: the “lymphocyte count (number of lymphocytes)” value was < 1 10^3/μL blood.

Still in this experiment, the particulars now being: mice, 0.5 mg/kg, 5, 24, 48, 72 hours (FIG. 1).
Regarding `O=P(O)(O)CCCNCc1cc(F)c(CCCCCCc2ccccc2)cc1F` [Compound 10, (3-{[2,5-difluoro-4-(6-phenylhexyl)benzyl]amino}propyl)phosphonic acid], the Lymphopenia result is recorded as “Lymphopenia was induced”.

The next experiment has as its target T1, human S1P1 receptor (Homo sapiens, UniProt P21453).
T1 construct: expressed in transfected cells; membranes used
Put plainly: GTP γ35S binding assay for S1P1 activity. The class given is biochemical. As to conditions: membranes of cells stably expressing S1P1 receptor, agonist potency. How it is done: Compounds were tested for S1P1 activity using the GTP γ^35S binding assay. These compounds may be assessed for their ability to activate or block activation of the human S1P1 receptor in cells stably expressing the S1P1 receptor.
GTP γ^35S binding was measured in the medium containing (mM) HEPES 25, pH 7.4, MgCl2 10, NaCl 100, dithitothreitol 0.5, digitonin 0.003%, 0.2 nM GTP γ^35S, and 5 μg membrane protein in a volume of 150 μl. Test compounds were included in the concentration range from 0.08 to 5,000 nM unless indicated otherwise. Membranes were incubated with 100 μM 5′-adenylylimmidodiphosphate for 30 min, and subsequently with 10 μM GDP for 10 min on ice. Drug solutions and membrane were mixed, and then reactions were initiated by adding GTP γ^35S and continued for 30 min at 25° C. Reaction mixtures were filtered over Whatman GF/B filters under vacuum, and washed three times with 3 mL of ice-cold buffer (HEPES 25, pH7.4, MgCl2 10 and NaCl 100). Filters were dried and mixed with scintillant, and counted for ^35S activity using a β-counter. Agonist-induced GTP γ^35S binding was obtained by subtracting that in the absence of agonist. Binding data were analyzed using a non-linear regression method. In case of antagonist assay, the reaction mixture contained 10 nM S1P in the presence of test antagonist at concentrations ranging from 0.08 to 5000 nM.
Background: GTPγS resists hydrolysis and so accumulates on activated G proteins.
The compound `O=P(O)(O)CCCNCc1ccc(CCCCCCc2ccccc2)c(Cl)c1` [Compound 8, (3-{[3-chloro-4-(6-phenylhexyl)benzyl]amino}propyl)phosphonic acid] showed an EC50 of 0.5 nM.

`O=P(O)(O)CCCNCc1ccc(CCCCCCc2ccccc2)cc1` [Compound 9, (3-{[4-(6-phenylhexyl)benzyl]amino}propyl)phosphonic acid] yielded an EC50 of 6.8 nM.

For the compound `O=C(CCCCc1ccccc1)Nc1ccc(CNCCCP(=O)(O)O)cc1Br` [Compound 11, [3-({3-bromo-4-[(5-phenylpentanoyl)amino]benzyl}amino)propyl]phosphonic acid], the EC50 was determined as 105 nM.

Compound `Cc1cc(CNCCCP(=O)(O)O)ccc1CCCCCCc1ccccc1` [Compound 6, (3-{[3-methyl-4-(6-phenylhexyl)benzyl]amino}propyl)phosphonic acid] registered an EC50 of 0.7 nM. Compared with the last compound, the EC50 is about 150-fold lower.

`O=P(O)(O)CCCNCc1ccc(C#CCCCCc2ccccc2)c(F)c1` [Compound 1, (3-{[3-fluoro-4-(6-phenylhex-1-yn-1-yl)benzyl]amino}propyl)phosphonic acid] had an EC50 of 4.3 nM.

In the case of `O=P(O)(O)CCCNCc1cc(F)c(CCCCCCc2ccccc2)cc1F` [Compound 10, (3-{[2,5-difluoro-4-(6-phenylhexyl)benzyl]amino}propyl)phosphonic acid], the half-maximal effective concentration (EC50) was found to be 1.9 nM.

`O=P(O)(O)CCCNCc1ccc(C#CCCCCc2ccccc2)c(Br)c1` [Compound 4, (3-{[3-bromo-4-(6-phenylhex-1-yn-1-yl)benzyl]amino}propyl)phosphonic acid]: the EC50 amounted to 22.1 nM.

The compound `O=P(O)(O)CCCNCc1ccc(NCCCCCc2ccccc2)c(Br)c1` [Compound 12, [3-({3-bromo-4-[(5-phenylpentyl)amino]benzyl}amino)propyl]phosphonic acid] displayed an EC50 of 4.1 nM.

Consider `O=P(O)(O)CCCNCc1ccc(C#CCCCCc2ccccc2)cc1` [Compound 3, (3-{[4-(6-phenylhex-1-yn-1-yl)benzyl]amino}propyl)phosphonic acid], for which the EC50 was found to be 26.7 nM.

Compound `O=P(O)(O)CCCNCc1ccc(CCCCCCc2ccccc2)c(F)c1` [Compound 5, (3-{[3-fluoro-4-(6-phenylhexyl)benzyl]amino}propyl)phosphonic acid] returned a 50% effective concentration (EC50) of 4.2 nM.

Take `O=P(O)(O)CCCNCc1ccc(CCCCCCc2ccccc2)c(C(F)(F)F)c1` [Compound 7, (3-{[4-(6-phenylhexyl)-3-(trifluoromethyl)benzyl]amino}propyl)phosphonic acid]: the EC50 worked out at 11.2 nM.

On to `Cc1cc(CNCCCP(=O)(O)O)ccc1C#CCCCCc1ccccc1` [Compound 2, (3-{[3-methyl-4-(6-phenylhex-1-yn-1-yl)benzyl]amino}propyl)phosphonic acid], for which a half-maximal response (EC50) required 3.4 nM.
